Test results reported in PMC8245078, “Development of novel benzofuran-isatin conjugates as potential antiproliferative agents with apoptosis inducing mechanism in Colon cancer” (Journal of Enzyme Inhibition and Medicinal Chemistry, 2021).

How the values were obtained:
[1] = tested on: HT-29 colorectal cancer cell line; test: MTT cell viability assay; assay type: cell-based, human; conditions: for inhibition of HT-29 cancer cells viability: 10 µM, 24 h, MTT
Description: (§1) In the present investigation a new set of benzofuran–isatin hybrids (5a–e and 7a–i) was synthesised to be evaluated for their potential anticancer activity towards two human colorectal cancer cell lines, SW-620 and HT-29. […] Both, SW-620 and HT-29 cells were treated with 10 µM of each compound for 24 h and the percent cell viability was calculated using MTT assay.
(§2) For this reason, compounds 5a and 5d were pursued for further studies. Starting with determination of IC50s and cytotoxic selectivity studies. Serial concentrations of compounds 5a and 5d were used to examine their impact on cell viability using MTT protocol. Results of concentration vs percent viability were charted, and the IC50 was calculated for SW-620 and HT-29 cell lines using Graph Pad prism 8 (Figure 4). […]
(§3) [(Ti-Tz)/Tz] x 100 for concentrations for which Ti<Tz […]
(§4) SW620 and HT29 colorectal cancer cell lines and HFF-1 fibroblast (ATCC, Rockville, USA) were used. HT29 cells were cultured and maintained in Dulbecco’s Modified Eagles Medium (DMEM) (GIBCO, by Thermo Fischer Scientific, NY, USA) supplemented with 10% fetal bovine serum (FBS), 100 units/mL penicillin, and 100 μg streptomycin. SW620 and HFF-1 cells were cultured in Roswell Park Memorial Institute medium (RPMI-1640) (GIBCO, by Thermo scientific, NY, USA) supplemented with 10% FBS and 1% penicillin and streptomycin (Napolitano et al., 2015). All cultures were incubated at 37 °C and humidified atmosphere of 5% […]
(§5) 2.3. Cell Viability Assay
(§6) The cytotoxicity effect of compounds on the colorectal cancer cell lines, SW620 and HT29 in addition to the normal human fibroblasts was measured by MTT (3-(4, 5-dimethylthiazol-2-yl)-2,5-diphenyltetrazolium bromide) (Sigma-Aldrich, St. Louis, MO, USA) as previously described. Briefly, cells were seeded in 96 well culture plates at 5000/well for HT29 and 10,000/well for SW620 for 24 h. Cells were then incubated with different compounds from WAG1 series (1-15) 24h at 37 °C and humidified 5% CO2 incubator. Freshly prepared 10 μl of 3-(4,5-dimethylthiazol-2-yl)-2,5-diphenyltetrazolium bromide (MTT 5 mM) solution were added to the cells and further incubated for 2 h. Thereafter, 100 μl of dimethyl sulfoxide (DMSO) were added in each well and the crystals were dissolved through careful pipetting. […]
VA, USA). The experiments were performed in triplicate for each condition. […]
(§7) The total protein concentration was evaluated by the colorimetric
(§8) Bradford protein assay (BIO-RAD inc, CA, USA) at 595 nm absorbance. Lysates were loaded in […]

[2] = tested on: SW-620 colorectal cancer cell line; test: MTT cell viability assay; assay type: cell-based, human; conditions: Homo sapiens, SW-620, SW-620, MTT
Description: as §1, §2, §3, §4, §5
as §6, with “pipetting. In certain experiment, cells were treated different concentration of 5FU for 72 h. The absorbance of the product was measured at 540 nm using a Synergy™ 2 multi-mode microplate reader (Biotech, VA, USA). The experiments were performed in triplicate for each condition.” for “pipetting.”
as §7, §8

SMILES | inhibition of HT-29 cancer cells viability [1] | IC50 ([1]; Homo sapiens, HT-29, HT-29, MTT) | IC50 [2]
Cc1c(C(=O)N/N=C2\C(=O)N(Cc3ccc(F)cc3)c3ccc(Br)cc32)oc2ccccc12 [Compound 7i] | > 50% |  | 
Cc1c(C(=O)N/N=C2\C(=O)N(Cc3ccccc3)c3ccc(Br)cc32)oc2ccccc12 [Compound 7h] | > 50% |  | 
Cc1c(C(=O)N/N=C2\C(=O)N(Cc3ccc(F)cc3)c3ccccc32)oc2ccccc12 [Compound 7e] | > 50% |  | 
CCc1c2c(nc3ccc(OC(=O)N4CCC(N5CCCCC5)CC4)cc13)-c1cc3c(c(=O)n1C2)COC(=O)[C@]3(O)CC [Irinotecan, reference compound] |  | 6.18 µM | 1 µM
C=CCN1C(=O)/C(=N\NC(=O)c2oc3ccccc3c2C)c2ccccc21 [Compound 7c] | > 50% |  | 
